According to patent US11377442B2, “Small molecule agonists and antagonists of NR2F6 activity” (ZANDER THERAPEUTICS, INC., priority 2016, dated 2022):
Like-named read-outs stand apart in the source and are kept apart here.

Experiments:
Format in all cases: cell-based
NR2F6 = target: T1, NR2F6 (Homo sapiens, UniProt P10588); assay: NR2F6 agonist screening, Firefly signal cmpd/DMSO
T1 construct: expressed in transfected cells; also transient transfection
T1 sequence (P10588 1-404): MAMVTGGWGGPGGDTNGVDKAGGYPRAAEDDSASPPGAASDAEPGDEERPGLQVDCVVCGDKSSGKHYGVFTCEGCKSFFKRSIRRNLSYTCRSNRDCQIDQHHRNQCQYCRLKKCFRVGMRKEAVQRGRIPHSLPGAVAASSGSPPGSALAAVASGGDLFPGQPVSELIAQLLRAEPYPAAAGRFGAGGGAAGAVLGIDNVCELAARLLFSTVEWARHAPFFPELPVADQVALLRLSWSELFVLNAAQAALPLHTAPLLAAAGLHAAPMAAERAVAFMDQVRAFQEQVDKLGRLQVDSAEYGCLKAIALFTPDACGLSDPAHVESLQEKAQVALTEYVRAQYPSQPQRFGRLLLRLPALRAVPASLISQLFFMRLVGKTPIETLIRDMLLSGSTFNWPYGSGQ

Renilla [1] = assay: Renilla signal in NR2F6 agonist screening, cmpd/DMSO; details: Renilla
HEK293 pGL4 = assay: Firefly_pGL signal, cmpd/DMSO (pGL4 control cells); details: Homo sapiens
NR2F6 LBD = target: T2, NR2F6 LBD (Homo sapiens, UniProt P10588); assay: NR2F6 LBD transient transfection
T2 construct: expressed in transfected cells
T2 sequence (P10588 165-393 limits assumed): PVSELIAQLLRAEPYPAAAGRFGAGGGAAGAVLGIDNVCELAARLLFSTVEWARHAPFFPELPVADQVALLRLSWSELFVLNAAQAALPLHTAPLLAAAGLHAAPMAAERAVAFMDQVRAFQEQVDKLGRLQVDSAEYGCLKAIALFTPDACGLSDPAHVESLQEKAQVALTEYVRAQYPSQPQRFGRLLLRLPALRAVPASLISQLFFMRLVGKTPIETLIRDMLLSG
How it was run: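 LBD-transfected cells treated at 40, 10, 2 and 0.5 μM (4 replicates); cytotoxicity measured in parallel, normalized to DMSO (0%) and zero signal (100%). Higher concentrations excluded where signal loss reflected toxicity.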

Renilla [2] = assay: Renilla signal, LBD, cmpd/DMSO (NR2F6 LBD transfected cells)
[3] = read-out: Renilla F4, cmpd/DMSO (mean)
[4] = F4, 1% FBS, read-out: Renilla, F4, 1% FBS, cmpd/DMSO (mean)
[5] = F4, 10% FBS, read-out: Renilla, F4, 10% FBS, cmpd/DMSO (mean)

Firefly F4, cmpd/DMSO (mean) (NR2F6; 0.5 uM): 1.5
Firefly F4, cmpd/DMSO (mean) (NR2F6; 2 uM): 2.3
Firefly F4, cmpd/DMSO (mean) (NR2F6; 10 uM): 2.1
Firefly F4, cmpd/DMSO (mean) (NR2F6; 40 uM): 2.8
F4, Firefly/Renilla for S/B(F4) > 3 (NR2F6; 1% FBS, 40 uM): 2.6
Firefly, F4/pGL4 for S/B(F4) > 3 (NR2F6; 1% FBS, 40 uM): 4.0
F4, Firefly/Renilla for S/B(F4) > 3 (NR2F6; 10% FBS, 40 uM): 2.3
Firefly, F4/pGL4 for S/B(F4) > 3 (NR2F6; 10% FBS, 40 uM): 2.3
Firefly, F4, 1% FBS, cmpd/DMSO (mean) (NR2F6; 1% FBS, 0.5 uM): 1.0
Firefly, F4, 1% FBS, cmpd/DMSO (mean) (NR2F6; 1% FBS, 2 uM): 1.2
Firefly, F4, 1% FBS, cmpd/DMSO (mean) (NR2F6; 1% FBS, 10 uM): 2.0
Firefly, F4, 1% FBS, cmpd/DMSO (mean) (NR2F6; 1% FBS, 40 uM): 5.4
Firefly, F4, 10% FBS, cmpd/DMSO (mean) (NR2F6; 10% FBS, 0.5 uM): 1.1
Firefly, F4, 10% FBS, cmpd/DMSO (mean) (NR2F6; 10% FBS, 2 uM): 1.0
Firefly, F4, 10% FBS, cmpd/DMSO (mean) (NR2F6; 10% FBS, 10 uM): 2.1
Firefly, F4, 10% FBS, cmpd/DMSO (mean) (NR2F6; 10% FBS, 40 uM): 4.6
Firefly LBD, cmpd/DMSO (mean) (NR2F6 LBD; 0.5 uM): 1.5
Firefly LBD, cmpd/DMSO (mean) (NR2F6 LBD; 2 uM): 1.5
Firefly LBD, cmpd/DMSO (mean) (NR2F6 LBD; 10 uM): 1.9
Firefly LBD, cmpd/DMSO (mean) (NR2F6 LBD; 40 uM): 1.8
SMILES: O=S1(=O)C[C@H](NCC2CCCO2)[C@@H](S(=O)(=O)c2cccs2)C1 (stereo partly drawn) [Compound D134]
fold induction at 0.5 µM (Renilla [1]; [3]): 1.1
fold induction at 2 µM (Renilla [1]; [3]): 1.2
fold induction at 10 µM (Renilla [1]; [3]): 1.3
fold induction at 40 µM (Renilla [1]; [3]): 1.5
fold induction at 0.5 µM (Renilla [1]; [4]): 1
fold induction at 2 µM (Renilla [1]; [4]): 1.2
fold induction at 10 µM (Renilla [1]; [4]): 1.4
fold induction at 40 µM (Renilla [1]; [4]): 2.1
fold induction at 0.5 µM (Renilla [1]; [5]): 1
fold induction at 2 µM (Renilla [1]; [5]): 1
fold induction at 10 µM (Renilla [1]; [5]): 1.3
fold induction at 40 µM (Renilla [1]; [5]): 2
fold induction at 0.5 µM (HEK293 pGL4; HEK293, 0.5 uM, read-out: Firefly pGL4, cmpd/DMSO (mean)): 1
fold induction at 2 µM (HEK293 pGL4; HEK293, 2 uM, read-out: Firefly pGL4, cmpd/DMSO (mean)): 1.3
fold induction at 10 µM (HEK293 pGL4; HEK293, 10 uM, read-out: Firefly pGL4, cmpd/DMSO (mean)): 1.6
fold induction at 40 µM (HEK293 pGL4; HEK293, 40 uM, read-out: Firefly pGL4, cmpd/DMSO (mean)): 1.7
fold induction at 0.5 µM (HEK293 pGL4; HEK293, pGL4, 1% FBS, 0.5 uM, read-out: Firefly, pGL4, 1% FBS, cmpd/DMSO (mean)): 1
fold induction at 2 µM (HEK293 pGL4; HEK293, pGL4, 1% FBS, 2 uM, read-out: Firefly, pGL4, 1% FBS, cmpd/DMSO (mean)): 1.3
fold induction at 10 µM (HEK293 pGL4; HEK293, pGL4, 1% FBS, 10 uM, read-out: Firefly, pGL4, 1% FBS, cmpd/DMSO (mean)): 1.3
fold induction at 40 µM (HEK293 pGL4; HEK293, pGL4, 1% FBS, 40 uM, read-out: Firefly, pGL4, 1% FBS, cmpd/DMSO (mean)): 1.4
fold induction at 0.5 µM (HEK293 pGL4; HEK293, pGL4, 10% FBS, 0.5 uM, read-out: Firefly, pGL4, 10% FBS, cmpd/DMSO (mean)): 1.2
fold induction at 2 µM (HEK293 pGL4; HEK293, pGL4, 10% FBS, 2 uM, read-out: Firefly, pGL4, 10% FBS, cmpd/DMSO (mean)): 1.3
fold induction at 10 µM (HEK293 pGL4; HEK293, pGL4, 10% FBS, 10 uM, read-out: Firefly, pGL4, 10% FBS, cmpd/DMSO (mean)): 1.7
fold induction at 40 µM (HEK293 pGL4; HEK293, pGL4, 10% FBS, 40 uM, read-out: Firefly, pGL4, 10% FBS, cmpd/DMSO (mean)): 2
Renilla LBD, cmpd/DMSO (mean) (Renilla [2]; 0.5 uM): 0.9
Renilla LBD, cmpd/DMSO (mean) (Renilla [2]; 2 uM): 0.9
Renilla LBD, cmpd/DMSO (mean) (Renilla [2]; 10 uM): 1.0
Renilla LBD, cmpd/DMSO (mean) (Renilla [2]; 40 uM): 0.7
